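Growth conditions: 96-well plates. Treatment: test compound, 48 hours, 5 concentrations. Analysis: linear interpolation between bracketing concentrations; unreached endpoints set to highest concentration. Here, GI50 denotes the concentration required for 50% inhibition of growth. The concentration for full growth arrest is given as TGI.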
Assays:
Test in all cases: NCI-60 cell line screen, 48 h
SK-MEL-28 melanoma = system: SK-MEL-28 melanoma
CAKI-1 renal = system: CAKI-1 renal
SK-MEL-2 melanoma = system: SK-MEL-2 melanoma
A549 NSCLC = system: A549 NSCLC
OVCAR-4 ovarian = system: OVCAR-4 ovarian
SNB-75 CNS = system: SNB-75 CNS
HL-60(TB) leukemia = system: HL-60(TB) leukemia
A498 renal = system: A498 renal
KM12 colon = system: KM12 colon
SR leukemia = system: SR leukemia

Work on `Cc1cc(N)c2cc(NC(=O)/C=C\c3ccccc3Cl)ccc2n1` yielded a GI50 (SK-MEL-28 melanoma) of 0.447 µM, a TGI (SK-MEL-28 melanoma) of 0.886 µM and a GI50 (CAKI-1 renal) of 1.77 µM. For the same compound, the TGI (CAKI-1 renal) was 3.24 µM, the GI50 (SK-MEL-2 melanoma) was 1.83 µM and the TGI (SK-MEL-2 melanoma) was 3.34 µM. The GI50 (A549 NSCLC) was 1.71 µM, the TGI (A549 NSCLC) was 3.25 µM and the GI50 (OVCAR-4 ovarian) was 0.365 µM. For the same compound, the TGI (OVCAR-4 ovarian) was 0.971 µM, the GI50 (SNB-75 CNS) was 1.7 µM and the TGI (SNB-75 CNS) was 3.21 µM. It also gave a GI50 (HL-60(TB) leukemia) of 1.67 µM, a TGI (HL-60(TB) leukemia) of 3.31 µM and a GI50 (A498 renal) of 1.5 µM. It also gave a TGI (A498 renal) of 2.95 µM, a GI50 (KM12 colon) of 0.767 µM and a TGI (KM12 colon) of 2.11 µM.

`CCOC(=O)C(c1ccsc1)P(=O)(OCC)OCC` (stereo not given) was tested, and the TGI (SK-MEL-28 melanoma) was 32.4 µM, the TGI (CAKI-1 renal) was 27.9 µM and the TGI (SK-MEL-2 melanoma) was 39.9 µM. It also gave a TGI (A549 NSCLC) of 55.8 µM, a TGI (OVCAR-4 ovarian) of over 100 µM and a TGI (SNB-75 CNS) of 43.5 µM. The TGI (KM12 colon) was 28.4 µM.

With `Cc1nc2ccccc2c(/C=C/c2ccc(C(F)(F)F)cc2)c1C(=O)/C=C/c1ccccc1` the GI50 (SK-MEL-28 melanoma) was 1.77 µM, the TGI (SK-MEL-28 melanoma) was 3.22 µM and the GI50 (CAKI-1 renal) was 1.23 µM. The TGI (CAKI-1 renal) was 2.51 µM, the GI50 (SK-MEL-2 melanoma) was 1.76 µM and the TGI (SK-MEL-2 melanoma) was 3.64 µM. For the same compound, the GI50 (A549 NSCLC) was 1.79 µM, the TGI (A549 NSCLC) was 4.73 µM and the GI50 (SNB-75 CNS) was 1.38 µM. It also gave a TGI (SNB-75 CNS) of 2.81 µM, a GI50 (HL-60(TB) leukemia) of 1.94 µM and a TGI (HL-60(TB) leukemia) of 4.44 µM. It also gave a GI50 (A498 renal) of 1.69 µM and a TGI (A498 renal) of 3.13 µM.

`C=CCC(NCc1ccccc1)c1cn(C(=O)OCC)c2ccccc12` (stereo not given) was tested, and the GI50 (SK-MEL-28 melanoma) was 41.5 µM, the TGI (SK-MEL-28 melanoma) was over 100 µM and the GI50 (CAKI-1 renal) was 18.5 µM. The TGI (CAKI-1 renal) was 41.6 µM, the GI50 (SK-MEL-2 melanoma) was 33.1 µM and the TGI (SK-MEL-2 melanoma) was over 100 µM. The GI50 (A549 NSCLC) was 31.5 µM, the TGI (A549 NSCLC) was over 100 µM and the GI50 (OVCAR-4 ovarian) was 51.5 µM. It also gave a TGI (OVCAR-4 ovarian) of over 100 µM, a GI50 (SNB-75 CNS) of 43.1 µM and a TGI (SNB-75 CNS) of over 100 µM. It also gave a GI50 (KM12 colon) of 28.4 µM and a TGI (KM12 colon) of over 100 µM.

Compound `CCOC(=O)CCC(NC(=O)c1ccc(Oc2nc3cc(N)cc(N)c3nc2-c2ccccc2)cc1)C(=O)OCC` (stereo not given) has a GI50 (SK-MEL-28 melanoma) of 14.3 µM, a TGI (SK-MEL-28 melanoma) of 30.5 µM and a GI50 (CAKI-1 renal) of 49.5 µM. The TGI (CAKI-1 renal) was over 100 µM, the GI50 (SK-MEL-2 melanoma) was 40.7 µM and the TGI (SK-MEL-2 melanoma) was over 100 µM. For the same compound, the GI50 (A549 NSCLC) was over 100 µM, the TGI (A549 NSCLC) was over 100 µM and the GI50 (OVCAR-4 ovarian) was 35.6 µM. The TGI (OVCAR-4 ovarian) was over 100 µM, the GI50 (HL-60(TB) leukemia) was 31.5 µM and the TGI (HL-60(TB) leukemia) was 95 µM. For the same compound, the GI50 (KM12 colon) was 27.4 µM and the TGI (KM12 colon) was over 100 µM.

Compound `O=C(Nc1cccc2[nH]c(C(F)(F)F)nc12)c1ccc(Br)cc1F` has a GI50 (SK-MEL-28 melanoma) of 4.76 µM, a TGI (SK-MEL-28 melanoma) of 16.4 µM and a GI50 (CAKI-1 renal) of 2.89 µM. For the same compound, the TGI (CAKI-1 renal) was 15.7 µM, the GI50 (SR leukemia) was 3.51 µM and the TGI (SR leukemia) was 16.1 µM. It also gave a GI50 (SK-MEL-2 melanoma) of 0.32 µM, a TGI (SK-MEL-2 melanoma) of 2.12 µM and a GI50 (A549 NSCLC) of 3.27 µM. The TGI (A549 NSCLC) was 13.3 µM, the GI50 (SNB-75 CNS) was 2.68 µM and the TGI (SNB-75 CNS) was 18 µM. It also gave a GI50 (HL-60(TB) leukemia) of 3.05 µM, a TGI (HL-60(TB) leukemia) of 16 µM and a GI50 (A498 renal) of 2 µM. For the same compound, the TGI (A498 renal) was 5.57 µM, the GI50 (KM12 colon) was 3.29 µM and the TGI (KM12 colon) was 12 µM.

Work on `CN1C=C(C(N)=O)Cc2ccsc21` yielded a TGI (SK-MEL-28 melanoma) of over 100 µM, a TGI (CAKI-1 renal) of over 100 µM and a TGI (SR leukemia) of over 100 µM. It also gave a TGI (SK-MEL-2 melanoma) of over 100 µM, a TGI (A549 NSCLC) of over 100 µM and a TGI (OVCAR-4 ovarian) of over 100 µM. For the same compound, the TGI (SNB-75 CNS) was over 100 µM, the TGI (HL-60(TB) leukemia) was over 100 µM and the TGI (KM12 colon) was over 100 µM.

`N/N=C1\C(=O)N(c2ccc(Cl)c(Cl)c2)C(=O)C1C(=O)Nc1ccc(Cl)c(Cl)c1` (stereo not given) gave a TGI (SK-MEL-28 melanoma) of over 100 µM, a TGI (SK-MEL-2 melanoma) of over 100 µM and a TGI (A549 NSCLC) of over 100 µM. For the same compound, the TGI (OVCAR-4 ovarian) was over 100 µM, the TGI (SNB-75 CNS) was over 100 µM and the TGI (HL-60(TB) leukemia) was over 100 µM. The TGI (A498 renal) was over 100 µM and the TGI (KM12 colon) was over 100 µM.

`Cc1nc2ccccc2c(/C=C/c2ccc(F)cc2)c1C(=O)/C=C/c1ccccc1` showed a GI50 (SK-MEL-28 melanoma) of 2.36 µM, a TGI (SK-MEL-28 melanoma) of 5.67 µM and a GI50 (CAKI-1 renal) of 1.58 µM. For the same compound, the TGI (CAKI-1 renal) was 3.83 µM, the GI50 (SK-MEL-2 melanoma) was 3.22 µM and the TGI (SK-MEL-2 melanoma) was 15.8 µM. It also gave a GI50 (A549 NSCLC) of 2.88 µM, a TGI (A549 NSCLC) of 10.3 µM and a GI50 (OVCAR-4 ovarian) of 3.66 µM. For the same compound, the TGI (OVCAR-4 ovarian) was over 100 µM, the GI50 (SNB-75 CNS) was 8.15 µM and the TGI (SNB-75 CNS) was over 100 µM. It also gave a GI50 (HL-60(TB) leukemia) of 2.55 µM, a TGI (HL-60(TB) leukemia) of 6.93 µM and a GI50 (A498 renal) of 2.22 µM. The TGI (A498 renal) was 4.62 µM, the GI50 (KM12 colon) was 2.38 µM and the TGI (KM12 colon) was 6.82 µM.

From PubChem BioAssay (NCI)
